Measured values published in PMC5597684, “Prediction and in vitro verification of potential CTL epitopes conserved among PRRSV-2 strains” (Immunogenetics, 2017).
Like-named read-outs stand apart in the source and are kept apart here. Ends that are not written are not given here.

Assays:
SLA-1*04:01 [1] = molecular target: T1, SLA-1*04:01 (Sus scrofa, UniProt O19244); assay: pSLA binding affinity, modified ELISA; design: species or system swine
Method: (§1) Five SLA class I alleles were used: SLA-1*04:01, SLA-1*07:02, SLA-2*04:01, SLA-2*05:02 and SLA-3*04:01.
(§2) Based on the bioinformatics described above, 53 peptides (purity >85%, GenScript) were acquired for in vitro verification.
(§3) Binding affinity of pSLA complexes was determined in vitro using a modified enzyme-linked immunosorbent assay (ELISA) (Sylvester-Hvid et al. [2002]; Pedersen et al. [2011]). Briefly, 1–2 nM denatured biotinylated recombinant SLA heavy chains were refolded with 15 nM human β2m (hβ2m) and eight fivefold incremental concentrations of the peptide to be tested spanning from 0 to 13 μM. Following obtained equilibrium after two nights of incubation at RT, the samples were transferred to a streptavidin coated 96-well capture plate (436014, Thermo Scientific) for 1½ h of incubation. Mouse-anti-hβ2m, BBM1, and horseradish peroxidase-conjugated goat-anti-mouse IgG (A9917, Sigma-Aldrich) were used as primary and secondary detection antibodies, respectively. Washing steps were performed with 0.05% Tween 20 in PBS. The color reaction of TMB Plus2 (4395A, Kem-En-Tec Diagnostics) was stopped with equivalent amounts of H2SO4 (0.5 M, cat 30144.294, VWR International), and the plates were read at 450–650 nm using a Multiskan EX ELISA reader (Thermo). OD values were converted to measures of affinity (equilibrium dissociation constant, K D) using the prefolded biotinylated […]/HLA-A*02:01 as standard (Kast et al. [1994]), and were again converted to percentile rank scores by the same SLA-specific standard curves that are integrated in NetMHCpan. A minimum of two reliable measurements were aspired for each pSLA combination, and in most cases this was obtained. The results are presented as the range between the minimum and maximum measurements converted to rank scores.

SLA-2*04:01 [2] = molecular target: T2, SLA-2*04:01 (Sus scrofa, UniProt Q8MHU4); assay: pSLA binding affinity, modified ELISA; design: species or system swine
Method: as §1, §2, §3

SLA-1*04:01 [3] = molecular target: T1, SLA-1*04:01; assay: pSLA complex stability, scintillation proximity assay (125I-β2m dissociation); format: binding, swine; conditions: SPA, 125I-β2m dissociation at 37 °C over 24 h with 200 nM unlabeled β2m, refolded overnight 18 °C with ≈50 μM peptide, average of duplicates, t½ in decimal hours
Method: as §1, §2
(§4) The stability of the pSLA complexes was determined in vitro using a scintillation proximity assay (SPA) employing the principle of ^125I-radiolabeled β2m dissociation as a measure of pSLA complex stability (Harndahl et al. [2011]; Parker et al. [1992b]). Briefly, denatured biotinylated recombinant SLA heavy chains were diluted in PBS/0.1% Lutrol F68 to 50 nM and refolded overnight at 18 °C with 2–10 nM ^125I-radiolabeled β2m and ≈50 μM of the peptide to be tested in streptavidin-coated scintillation 384-well FlashPlate PLUS microplates (SMP410A001PK, PerkinElmer). In case of a binding peptide, a scintillation signal was observed and the off-rate was subsequently determined by increasing the temperature to 37 °C and the addition of an excess of unlabeled β2m (final concentration 200 nM) while continuously monitoring the scintillation signal in a liquid microplate scintillation plate reader (Topcount NXT, PerkinElmer) for 24 h at 37 °C. The off-rate is equivalent to the peptide-specific dissociation rate and serves as a good measure for pSLA complex stability. The stability values reported are the averages of duplicates in half-life (t½) decimal hours.

SLA-2*04:01 [4] = molecular target: T2, SLA-2*04:01; assay: as above; format: binding, swine; conditions: SPA, 125I-β2m dissociation at 37 °C over 24 h with 200 nM unlabeled β2m, refolded overnight 18 °C with ≈50 μM peptide, average of duplicates, t½ in decimal hours
Method: as §1, §2, §4

SLA-1*07:02 = assay: as above; format: binding, swine; conditions: SPA, 125I-β2m dissociation at 37 °C over 24 h with 200 nM unlabeled β2m, refolded overnight 18 °C with ≈50 μM peptide, average of duplicates, t½ in decimal hours
Method: as §1, §2, §4

[5] = ELISA as above, only one successful affinity measurement, read-out: Aff. (nM), measured affinity (equilibrium dissociation constant)
[6] = ELISA, 1–2 nM heavy chain, 15 nM hβ2m, peptide 0 to 13 μM, two nights at RT, average of successful measurements, read-out: Aff. (nM), measured affinity (average equilibrium dissociation constant)

Row | Sequence | Kd (SLA-1*04:01 [1]; [6]) | Kd (SLA-2*04:01 [2]; [6]) | further results
1 | ALATAPDGTY [ID46] |  |  | Kd (SLA-1*04:01 [1]; [5]): 607 nM
2 | ASDWFAPRY [ID25] | 2 nM |  | 
3 | ASYVWVPLTW [ID20] |  | 17100 nM | 
4 | ATQEWLSRMW [ID31] |  |  | Kd (SLA-2*04:01 [2]; [5]): 50000 nM
5 | FTWYQLASY [ID13] |  | 2 nM | Kd (SLA-1*04:01 [1]; [5]): 92 nM
6 | FVLSWLTPW [ID28] |  | 3 nM | 
7 | GGNWFHLEW [ID8] |  | 16600 nM | 
8 | KIFRFGSHKW [ID22] |  |  | Kd (SLA-2*04:01 [2]; [5]): 9 nM
9 | KSGHPHGLLF [ID6] |  |  | Stab. (h), measured stability (average dissociation half-life) (SLA-1*04:01 [3]): 0.1 h
10 | KVAHNLGFY [ID21] | 4 nM |  | 
11 | KVAHNLGFYF [ID10] | 122 nM |  | 
12 | LSASSQTEY [ID38] |  |  | Kd (SLA-1*04:01 [1]; [5]): 91 nM
13 | LSDSGRISY [ID19] | 10 nM |  | Kd (SLA-2*04:01 [2]; [5]): 4180 nM
14 | LSFSYTAQF [ID12] |  | 73 nM | 
15 | LTAALNRNRW [ID36] |  | 40 nM | 
16 | MSWRYSCTRY [ID44] |  | 15 nM | 
17 | MVNTTRVTY [ID29] |  |  | Kd (SLA-1*04:01 [1]; [5]): 206 nM
18 | NISAVFQTYY [ID23] | 413 nM | 862 nM | 
19 | QVYERGCRWY [ID7] | 682 nM |  | Kd (SLA-2*04:01 [2]; [5]): 209 nM
20 | RSTPAIVRWF [ID3] |  |  | Stab. (h), measured stability (average dissociation half-life) (SLA-1*04:01 [3]): 0.1 h
21 | RTAIGTPVY [ID17] | 57 nM |  | Kd (SLA-2*04:01 [2]; [5]): 385 nM
22 | RTAPNEIAF [ID24] | 4 nM |  | 
23 | RTILGTNNF [ID1] |  |  | Kd (SLA-1*04:01 [1]; [5]): 1030 nM
24 | SSAFFLRYF [ID45] |  |  | Stab. (h), measured stability (average dissociation half-life) (SLA-2*04:01 [4]): 0.1 h
25 | SSEGHLTSVY [ID34] |  |  | Kd (SLA-2*04:01 [2]; [5]): 1690 nM
26 | TLSNYRRSY [ID15] |  |  | Stab. (h), measured stability (average dissociation half-life) (SLA-1*07:02): 0.3 h
27 | TTMPSGFELY [ID43] | 576 nM |  | Kd (SLA-2*04:01 [2]; [5]): 1840 nM
28 | WGVYSAIETW [ID48] |  | 21400 nM | 
29 | YAQHMVLSY [ID2] |  | 60 nM | 
30 | YSFPGPPFF [ID4] |  |  | Kd (SLA-1*04:01 [1]; [5]): 37 nM
